Legend:
[1] = test system: fibroblasts; test: Cytokine production by PEP005-treated human fibroblasts; format: cell-based; conditions: 6 h, supernatant
Procedure: Cytokine production by PEP005-treated human cells Confluent cultures of Me10538 cells, keratinocytes, fibroblasts and neutrophils were incubated for 6 h in the absence or presence of PEP005 (1-100 ng/ml). The supernatants were harvested and analyzed for the presence of the following cytokines; TNF-α, IL-6 and IL-8 using a multiplex detection kit (Biosource International, Nivelles, Belgium). Units of detected proteins are pg/ml.

[2] = test system: rat full-thickness incisional wounds; test: Rat incisional wound healing model: tensiometric assessment of wound strength; format: in vivo; conditions: single topical treatment
From the text: In order to examine the effects of PEP005 on the repair of acute (surgical) incisional wounds, involving minimal new tissue generation, the rat, full-thickness incisional wound healing model, was employed.
Adult male Sprague Dawley rats (Harlan U.K. Ltd., Oxfordshire, U.K.), approximately 8-10 weeks old and weighing between 250-300 g, were used in this study. The animals were initially housed in groups of up to four per cage (cage dimensions 40×25×20 cm, with sawdust bedding, changed twice weekly), according to Home Office regulations, in an environment maintained at an ambient temperature of 23° C. with 12-hour light/dark cycles. The animals were provided food (Standard Rodent Diet) and water ad libitum. In order to acclimatize the animals to their surroundings, prior to experimentation, the animals were housed for a minimum of one week without disturbance, other than to refresh their bedding and to replenish their food and water provisions. Following wounding, animals were monitored under individual housed conditions until fully recovered from the procedure. Animals were then maintained individually for a period of 2 weeks (i.e. until their wounds have fully re-epithelialized). After this initial 2-week period, animals were maintained in groups of up to four for the remainder of the study. All animal procedures were performed in a Home Office licensed establishment, under U.K. Home Office Licences (PPL: 40/2650; PIL: 70/4934 and PIL: 60/7661).
Animals were anaesthetized using inhalation of Halothane and air, and the dorsum of each rat shaved and washed with the bactericide, chlorhexidine gluconate (0.05% aqueous). Four full-thickness incisional wounds (1 cm in length, include the panniculus carnosus and hypodermis) were created on the backs of each animal. Wounds remained unsutured (allowed to gape), in order to allow granulation tissue to form within the wounds. Following wounding (day 0), one of the four PEP005 concentrations (PEP005-free, DMSO/isopropanol gel vehicle, 0.01%, 0.028% or 0.05% PEP005) were applied to each wound, whilst non-treated wound controls remained untreated. […]
Immediately after injury, single treatments of the 0.01%, 0.028% PEP005, or DMSO/isopropanol vehicle gels, were applied at volumes of 10 μl per 100 mm^2 (1 μg/10 μl, 2.8 μg/10 μl and 5 μg/10 μl PEP005, respectively), to the marginal skin surrounding each wound, with a total area of 600 mm^2 of marginal skin receiving treatment. […] Rats were maintained in their respective experimental groups for 1, 4 and 12 weeks, when the animals in each group were euthanized and the condition of wound and peri-wound tissues (in terms of viability, erythema, oedema, etc.), monitored at all assessment points, according to Table 2.1. […]

C/C=C(/C)C(=O)O[C@H]1C(C)=C[C@]23C(=O)[C@@H](C=C(CO)[C@@H](O)[C@]12O)[C@H]1[C@@H](C[C@H]3C)C1(C)C [PEP005, ingenol-3-angelate]
IL-6 ([1]; PEP005 1 ng/ml): 81 ± 4 pg/mL | IL-8 ([1]; PEP005 1 ng/ml): 79 ± 3 pg/mL | IL-6 ([1]; PEP005 5 ng/ml): 85 ± 4 pg/mL | IL-8 ([1]; PEP005 5 ng/ml): 160 ± 14 pg/mL | IL-6 ([1]; PEP005 10 ng/ml): 141 ± 6 pg/mL | IL-8 ([1]; PEP005 10 ng/ml): 215 ± 12 pg/mL | IL-6 ([1]; PEP005 100 ng/ml): 205 ± 5 pg/mL | IL-8 ([1]; PEP005 100 ng/ml): 239 ± 9 pg/mL | mean tensile strength of wound ([2]; week 4, 0.01%, 0.028%, 0.05% PEP005 gel): dose dependent trend, with increasing tensile strength | mean tensile strength of wound ([2]; week 12, 0.01% PEP005 gel): increasing | mean tensile strength of wound ([2]; week 12, 0.028% PEP005 gel): declining at 0.028% to control levels | mean tensile strength of wound ([2]; week 12, 0.05% PEP005 gel): another increase

Source: patent publication US20090215884A1, “METHOD FOR WOUND HEALING” (priority 2005, published 2009)
